Data taken from patent publication US20160376240A1, “6 Phenyl or 6 Pyridin 3 YL Indazole Derivatives and Methods of Use” (ABBVIE INC., priority 2014, published 2016).

Key:
Format in all cases: biochemical
TrkC = molecular target: T1, TrkC (Homo sapiens, UniProt Q16288); assay: TrkC kinase inhibition, HTRF assay; conditions: LCK peptide substrate, assay ATP concentration targeted 5 μM
T1 construct: purchased Invitrogen PV3617
Protocol: (§1) TrkA, TrkB, and TrkC enzymes were obtained from Invitrogen (as catalog numbers PV3144, PV3616, and PV3617, respectively). The ability of a compound to inhibit the enzymatic activity of the TrkA, TrkB, and TrkC enzymes was determined in separate assays. Enzyme activity was measured in an HTRF® (homogeneous time resolved fluorescence) assay, which detects enzymatic phosphorylation of a biotinylated synthetic peptide substrate (an LCK peptide analog, biotin-ahx-GAEEEIYAAFFA, from Genemed Synthesis). Phosphorylation is assessed by HTRF® in the presence of an anti-phosphotyrosine antibody conjugated to Eu^3+ cryptate (Cisbio) as donor fluorophore, and streptavidin conjugated to allophycocyanin (ProZyme) as acceptor fluorophore. The HTRF® signal was detected at two different wavelengths (620 nm and 665 nm) which were used to calculate the fluorescence ratio.
(§2) Each enzyme was titrated to a concentration optimized to ensure accurate measurement of the initial reaction rate. To allow the Trk enzymes to undergo activation and auto-phosphorylation, a 20 minute pre-incubation with ATP was carried out (at twice the final targeted enzyme and ATP concentration) prior to addition of test compound and the peptide substrate.
(§3) TrkA in vitro assays were performed by pre-incubating TrkA (2-10 nM) with ATP (200 μM) for 20 minutes at ambient temperature in 50 mM HEPES pH 7.4, 10 mM MgCl2, 2 mM MnCl2, 100 μM Na3VO4, 1 mM dithiothreitol, 0.01% BSA (bovine serum albumin). Then, to the activated Trk enzyme mixture was added the test compound in 2% dimethyl sulfoxide. After 10 minutes, the peptide substrate (125 nM) was added. After 1 hour, enzyme reactions were terminated by addition of equal reaction volumes of detection/stop reagent (containing 0.2 μg/mL anti-phosphotyrosine monoclonal antibody labeled with europium from Cisbio (catalog# PT66-K), and 4 μg/mL PhycoLink® Streptavidin-Allophycocyanin conjugate from ProZyme (catalog# PJ25S) in 60 mM EDTA in 40 mM HEPES pH 7.4, 480 mM KF, 0.01% Tween® 20 and 0.1% BSA bovine serum albumin) Reaction plates were stored at 4° C. overnight before reading the fluorescence ratio signal on a PerkinElmer EnVision™ fluorescence detector. Individual reaction wells were stopped at time points to obtain reaction rates. The test inhibitor compounds were assayed in duplicate, at half-log serial dilutions over a range of concentrations (e.g. starting at 50 μM or 5 μM as the high compound concentration). The percent Trk enzyme inhibition was calculated from the initial rates of the inhibited reactions relative to the uninhibited control. IC50 values were calculated by fitting the inhibition percent to the concentration of inhibitor [I] in the assay in equation 1 below, to solve for the IC50.
(§4) Inhibition %=100[I]/([I]+[IC50]) equation 1
(§5) The TrkB and TrkC in vitro assays were performed as described above, except that for these enzymes the assay ATP concentration targeted was 5 μM.

TrkB = molecular target: T2, TrkB (Homo sapiens, UniProt Q16620); assay: TrkB kinase inhibition, HTRF assay; conditions: LCK peptide substrate, assay ATP concentration targeted 5 μM
T2 construct: purchased Invitrogen PV3616
T2 sequence (Q16620 32-822): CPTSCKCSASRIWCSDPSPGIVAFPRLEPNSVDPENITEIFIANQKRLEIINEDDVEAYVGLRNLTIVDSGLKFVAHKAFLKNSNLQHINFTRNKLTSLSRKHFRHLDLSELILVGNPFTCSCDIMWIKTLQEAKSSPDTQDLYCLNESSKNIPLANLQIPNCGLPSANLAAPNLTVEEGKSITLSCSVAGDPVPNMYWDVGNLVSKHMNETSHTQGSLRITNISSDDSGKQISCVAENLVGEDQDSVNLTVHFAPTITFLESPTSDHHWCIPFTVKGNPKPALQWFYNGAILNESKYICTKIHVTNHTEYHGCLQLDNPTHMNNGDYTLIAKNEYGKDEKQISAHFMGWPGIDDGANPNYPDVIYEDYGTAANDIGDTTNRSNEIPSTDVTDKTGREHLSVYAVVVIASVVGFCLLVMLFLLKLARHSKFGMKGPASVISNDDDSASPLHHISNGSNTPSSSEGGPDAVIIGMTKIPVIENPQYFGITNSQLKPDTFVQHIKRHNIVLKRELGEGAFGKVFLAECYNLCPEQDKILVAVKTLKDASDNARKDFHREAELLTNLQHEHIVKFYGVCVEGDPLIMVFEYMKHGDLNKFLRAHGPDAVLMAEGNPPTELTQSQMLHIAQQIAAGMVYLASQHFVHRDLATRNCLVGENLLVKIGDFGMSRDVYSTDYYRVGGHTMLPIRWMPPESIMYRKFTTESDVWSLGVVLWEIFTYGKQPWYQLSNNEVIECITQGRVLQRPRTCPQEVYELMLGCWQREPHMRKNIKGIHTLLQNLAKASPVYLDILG
Protocol: as §1, §2, §3, §4, §5

TrkA = molecular target: T3, TrkA (Homo sapiens, UniProt P04629); assay: TrkA kinase inhibition, HTRF assay; conditions: LCK peptide substrate 125 nM, TrkA 2-10 nM pre-incubated with ATP 200 μM
T3 construct: purchased Invitrogen PV3144
T3 sequence (P04629 33-796): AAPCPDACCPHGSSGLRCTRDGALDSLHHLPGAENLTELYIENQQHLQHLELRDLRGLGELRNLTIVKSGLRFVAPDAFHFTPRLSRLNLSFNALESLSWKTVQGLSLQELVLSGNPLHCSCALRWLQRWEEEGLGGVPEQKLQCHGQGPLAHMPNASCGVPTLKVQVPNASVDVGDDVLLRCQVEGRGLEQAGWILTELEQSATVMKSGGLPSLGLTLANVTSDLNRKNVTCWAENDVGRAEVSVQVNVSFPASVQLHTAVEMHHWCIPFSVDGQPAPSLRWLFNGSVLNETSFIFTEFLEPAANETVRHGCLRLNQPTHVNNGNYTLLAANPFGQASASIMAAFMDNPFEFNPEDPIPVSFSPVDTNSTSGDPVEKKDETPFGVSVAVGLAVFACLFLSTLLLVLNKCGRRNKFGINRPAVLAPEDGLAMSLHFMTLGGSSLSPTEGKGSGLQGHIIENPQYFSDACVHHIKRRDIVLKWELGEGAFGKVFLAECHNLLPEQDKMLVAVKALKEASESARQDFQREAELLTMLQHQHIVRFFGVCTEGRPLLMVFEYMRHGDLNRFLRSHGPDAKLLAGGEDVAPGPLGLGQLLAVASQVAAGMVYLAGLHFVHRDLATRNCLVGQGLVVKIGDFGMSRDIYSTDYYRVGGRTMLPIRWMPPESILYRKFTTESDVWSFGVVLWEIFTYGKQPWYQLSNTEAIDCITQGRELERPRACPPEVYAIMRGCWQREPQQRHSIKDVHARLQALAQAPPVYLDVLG
In short: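 TrkA (2-10 nM) preactivated 20 min with 200 μM ATP in HEPES pH 7.4 with Mg2+/Mn2+, then compound for 10 min, then 125 nM biotinylated LCK-peptide for 1 h at ambient temperature. HTRF 665/620 ratio read; IC50 fitted from initial-rate percent inhibition.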

T1 sequence (Q16288 32-839): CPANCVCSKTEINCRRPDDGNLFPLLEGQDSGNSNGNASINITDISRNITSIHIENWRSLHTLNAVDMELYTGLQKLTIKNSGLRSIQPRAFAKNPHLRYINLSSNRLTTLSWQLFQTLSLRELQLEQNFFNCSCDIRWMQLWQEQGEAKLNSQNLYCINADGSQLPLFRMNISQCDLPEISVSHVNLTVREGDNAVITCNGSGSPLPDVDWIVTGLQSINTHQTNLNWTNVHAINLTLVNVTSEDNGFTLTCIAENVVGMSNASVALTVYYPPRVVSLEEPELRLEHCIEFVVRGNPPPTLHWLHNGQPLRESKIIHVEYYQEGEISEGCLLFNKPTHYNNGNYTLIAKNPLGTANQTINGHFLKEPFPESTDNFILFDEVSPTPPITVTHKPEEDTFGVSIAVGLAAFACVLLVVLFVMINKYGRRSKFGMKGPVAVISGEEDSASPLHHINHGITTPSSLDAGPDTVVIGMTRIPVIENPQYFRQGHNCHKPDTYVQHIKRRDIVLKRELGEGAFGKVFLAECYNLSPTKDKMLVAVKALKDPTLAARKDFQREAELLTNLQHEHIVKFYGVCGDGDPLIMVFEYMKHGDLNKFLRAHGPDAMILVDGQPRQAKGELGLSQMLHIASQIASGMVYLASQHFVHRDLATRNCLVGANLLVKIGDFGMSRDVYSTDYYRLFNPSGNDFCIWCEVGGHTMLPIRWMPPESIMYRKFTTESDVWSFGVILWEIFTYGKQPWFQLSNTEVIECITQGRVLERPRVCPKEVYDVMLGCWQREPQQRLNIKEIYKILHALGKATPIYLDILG

Row | SMILES | IC50 (TrkC) [nM] | IC50 (TrkB) [nM] | IC50 (TrkA) [nM]
1 | NC(=O)c1ccc(-c2cc(OC3CCOCC3)c3c(N)n[nH]c3c2)cc1N1CCN(C2CC2)CC1 [Example 3, 4-[3-amino-4-(tetrahydro-2H-pyran-4-yloxy)-1H-indazol-6-yl]-2-(4-cyclopropylpiperazin-1-yl)benzamide] | 25.7 | 20.6 | 55.3
2 | CC(C)(C)OC(=O)N1CCN(c2cc(-c3cc(OC4CCCC4)c4c(N)n[nH]c4c3)ccc2C(N)=O)CC1 [Example 73, tert-butyl 4-{5-[3-amino-4-(cyclopentyloxy)-1H-indazol-6-yl]-2-carbamoylphenyl}piperazine-1-carboxylate] | 3.53 | 3.17 | 13.7
3 | CNC(=O)c1ccc(-c2cc(O[C@H](C)C(F)(F)F)c3c(N)n[nH]c3c2)cc1N1CCN(C2CCCCC2)CC1 [Example 56, 4-(3-amino-4-{[(2R)-1,1,1-trifluoropropan-2-yl]oxy}-1H-indazol-6-yl)-2-(4-cyclohexylpiperazin-1-yl)-N-methylbenzamide] | 37.1 | 27.8 | 80
4 | NC(=O)c1ccc(-c2cc(OC3CCOCC3)c3c(N)n[nH]c3c2)cc1N1CCN(c2cccnc2)CC1 [Example 2, 4-[3-amino-4-(tetrahydro-2H-pyran-4-yloxy)-1H-indazol-6-yl]-2-[4-(pyridin-3-yl)piperazin-1-yl]benzamide] | 3.85 | 3.09 | 7.4
5 | CNC(=O)c1ccc(-c2cc(OC(C)C(F)(F)F)c3c(N)n[nH]c3c2)cc1N1CCN(C2CC2)CC1 (stereo not drawn) [Example 34, 4-{3-amino-4-[(1,1,1-trifluoropropan-2-yl)oxy]-1H-indazol-6-yl}-2-(4-cyclopropylpiperazin-1-yl)-N-methylbenzamide] | 318 | 330 | 318
6 | CC(Oc1cc(-c2ccc(C(N)=O)c(N3CCN(c4cccnc4)CC3)c2)cc2[nH]nc(N)c12)C(F)(F)F (stereo not drawn) [Example 91, 4-{3-amino-4-[(1,1,1-trifluoropropan-2-yl)oxy]-1H-indazol-6-yl}-2-[4-(pyridin-3-yl)piperazin-1-yl]benzamide] | 2.89 | 2.01 | 5.31
7 | CC(Oc1cc(-c2ccc(C(N)=O)c(N3CCN(c4ccccc4)CC3)c2)cc2[nH]nc(N)c12)C(F)(F)F (stereo not drawn) [Example 92, 4-{3-amino-4-[(1,1,1-trifluoropropan-2-yl)oxy]-1H-indazol-6-yl}-2-(4-phenylpiperazin-1-yl)benzamide] | 1.72 | 1.27 | 3.35
8 | NC(=O)c1ccc(-c2cc(OC3CCOCC3)c3c(N)n[nH]c3c2)cc1N1CCN(c2ccccc2)CC1 [Example 1, 4-[3-amino-4-(tetrahydro-2H-pyran-4-yloxy)-1H-indazol-6-yl]-2-(4-phenylpiperazin-1-yl)benzamide] | 1.03 | 0.786 | 2.66
9 | CNC(=O)c1ccc(-c2cc(OC3CCOCC3)c3c(N)n[nH]c3c2)cc1N1CCN(CC2CCCC2)CC1 [Example 110, 4-[3-amino-4-(tetrahydro-2H-pyran-4-yloxy)-1H-indazol-6-yl]-2-[4-(cyclopentylmethyl)piperazin-1-yl]-N-methylbenzamide] | 2.58 | 1.63 | 2.73
10 | COc1cncnc1N1CCN(c2cc(-c3cc(OC4CCOCC4)c4c(N)n[nH]c4c3)ccc2C(N)=O)CC1 [Example 6, 4-[3-amino-4-(tetrahydro-2H-pyran-4-yloxy)-1H-indazol-6-yl]-2-[4-(5-methoxypyrimidin-4-yl)piperazin-1-yl]benzamide] | 23.7 | 15 | 42.1
11 | CNC(=O)c1ccc(-c2cc(OC3CCOCC3)c3c(N)n[nH]c3c2)cc1N1CCN(c2ccccc2)CC1 [Example 30, 4-[3-amino-4-(tetrahydro-2H-pyran-4-yloxy)-1H-indazol-6-yl]-N-methyl-2-(4-phenylpiperazin-1-yl)benzamide] | 1.5 | 1.5 | 10.4
12 | NC(=O)c1ccc(-c2cc(OC3CCCC3)c3c(N)n[nH]c3c2)cc1N1CCN(c2ccccc2)CC1 [Example 71, 4-[3-amino-4-(cyclopentyloxy)-1H-indazol-6-yl]-2-(4-phenylpiperazin-1-yl)benzamide] | 1.67 | 1.5 | 4.92
13 | CC(C)N1CCN(c2cc(-c3cc(OC(C)C(F)(F)F)c4c(N)n[nH]c4c3)ccc2C(N)=O)CC1 (stereo not drawn) [Example 101, 4-{3-amino-4-[(1,1,1-trifluoropropan-2-yl)oxy]-1H-indazol-6-yl}-2-(4-isopropylpiperazin-1-yl)benzamide] | 305 | 317 | 377
14 | NC(=O)c1ccc(-c2cc(OC3CCCC3)c3c(N)n[nH]c3c2)cc1N1CCN(c2cccnc2)CC1 [Example 69, 4-[3-amino-4-(cyclopentyloxy)-1H-indazol-6-yl]-2-[4-(pyridin-3-yl)piperazin-1-yl]benzamide] | 3.09 | 1.63 | 2.95
15 | NC(=O)c1ccc(-c2cc(OC3CCCC3)c3c(N)n[nH]c3c2)cc1N1CCN(C2CCCCC2)CC1 [Example 74, 4-[3-amino-4-(cyclopentyloxy)-1H-indazol-6-yl]-2-(4-cyclohexylpiperazin-1-yl)benzamide] | 8.32 | 3.89 | 19

Continued by falling IC50 (TrkC), values first:

Row | IC50 (TrkC) [nM] | IC50 (TrkB) [nM] | IC50 (TrkA) [nM] | SMILES
16 | 300 | 268 | 232 | CNC(=O)c1ccc(-c2cc(O[C@@H](C)C(F)(F)F)c3c(N)n[nH]c3c2)cc1N1CCN(C2CCCCC2)CC1 [Example 47, 4-(3-amino-4-{[(2S)-1,1,1-trifluoropropan-2-yl]oxy}-1H-indazol-6-yl)-2-(4-cyclohexylpiperazin-1-yl)-N-methylbenzamide]
17 | 145 | 83.7 | 34.9 | NC(=O)c1ccc(-c2cc(OC3CCCC3)c3c(N)n[nH]c3c2)cc1N1CCN(CCN2CCOCC2)CC1 [Example 70, 4-[3-amino-4-(cyclopentyloxy)-1H-indazol-6-yl]-2-{4-[2-(morpholin-4-yl)ethyl]piperazin-1-yl}benzamide]
18 | 105 | 91.9 | 59.5 | CNC(=O)c1ccc(-c2cc(OC(C)C(F)(F)F)c3c(N)n[nH]c3c2)cc1N1CCN(C2CCCCC2)CC1 (stereo not drawn) [Example 35, 4-{3-amino-4-[(1,1,1-trifluoropropan-2-yl)oxy]-1H-indazol-6-yl}-2-(4-cyclohexylpiperazin-1-yl)-N-methylbenzamide]
19 | 8.53 | 8.04 | 15 | Nc1n[nH]c2cc(-c3ccc(C(=O)NC4CC4)c(N4CCN(c5ccccc5)CC4)c3)cc(OC3CCOCC3)c12 [Example 23, 4-[3-amino-4-(tetrahydro-2H-pyran-4-yloxy)-1H-indazol-6-yl]-N-cyclopropyl-2-(4-phenylpiperazin-1-yl)benzamide]
20 | 5.35 | 4.92 | 17.5 | NC(=O)c1ccc(-c2cc(OC3CCCC3)c3c(N)n[nH]c3c2)cc1N1CCN(c2ccc(F)cc2)CC1 [Example 72, 4-[3-amino-4-(cyclopentyloxy)-1H-indazol-6-yl]-2-[4-(4-fluorophenyl)piperazin-1-yl]benzamide]
21 | 4.89 | 2.58 | 15.7 | CNC(=O)c1ccc(-c2cc(OC(C)C)c3c(N)n[nH]c3c2)cc1N1CCN(C2CCCCC2)CC1 [Example 109, 4-(3-amino-4-isopropoxy-1H-indazol-6-yl)-2-(4-cyclohexylpiperazin-1-yl)-N-methylbenzamide]
22 | 1.5 | 1.5 | 13.7 | CC(=O)Nc1ccc(-c2cc(OC3CCOCC3)c3c(C)n[nH]c3c2)cc1OCCOc1ccccc1 [Example 130, N-{4-[3-methyl-4-(tetrahydro-2H-pyran-4-yloxy)-1H-indazol-6-yl]-2-(2-phenoxyethoxy)phenyl}acetamide]
